# Several values for one entry are separate records, joined by “and”; a condition that tells them apart may be missing. Equal values may be shown once.
# Columns and labels:
# Pseudomonas aeruginosa = assay: Broth microdilution MIC, Example 7 (NCL812 and analogues); format: cell-based; details: Pseudomonas #008, 24 hours
# E. faecalis #32 = assay: Broth microdilution MIC, Example 7 (NCL analogues), Table 42; format: cell-based, Enterococcus faecalis; details: E. faecalis #32, 24 hours
# S. aureus ATCC29213 = assay: as above; format: cell-based, Staphylococcus aureus; details: S. aureus ATCC29213, 24 hours
# Escherichia coli = assay: Broth microdilution MIC, Example 7 (NCL812 and analogues); format: cell-based; details: E. coli ATCC25922, 24 hours
# [1] = system: S. aureus isolates (HA-MRSA, CA-MRSA, methicillin-susceptible staphylococci); assay: Kirby-Bauer disc diffusion resistotyping, Example 4; format: cell-based, Staphylococcus aureus
# Outline: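 CLSI Kirby-Bauer disc diffusion on Mueller-Hinton agar. Overnight SBA cultures (37 °C) were suspended in saline and adjusted to 0.5 McFarland before spreading. Antibiotic discs were read after 24 h at 37 °C.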
# [2] = system: Staphylococcus aureus T3-129 / Staphylococcus spp. MK1; assay: Synergy studies, checkerboard method (FIC index); format: cell-based; details: S. aureus strain T3-29
# S. pneumoniae isolates = assay: Disk diffusion susceptibility (CLSI/EUCAST), Example 5; format: cell-based, Streptococcus pneumoniae
# Outline: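 Susceptibility to 12 antimicrobials was categorised (S/I/R) using CLSI breakpoints from zones of complete inhibition, read thrice to the nearest millimetre with the mode taken. Incubation was 16–24 h, 37 °C, 5% CO2.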
smiles,measurement,setting,value
CC(Nc1cnc(NC(C)c2ccc(Cl)cc2)cn1)c1ccc(Cl)cc1 (stereo not shown) [NCL 186],MIC (μg/ml) at 24 hours Pseudomonas #008,Pseudomonas aeruginosa,>64 µg/mL
same,MIC (μg/ml) at 24 hours E. faecalis #32,E. faecalis #32,>64 µg/mL
same,MIC (μg/ml) at 24 hours S. aureus ATCC29213,S. aureus ATCC29213,>64 µg/mL
same,MIC (μg/ml) at 24 hours E. coli ATCC25922,Escherichia coli,>64 µg/mL
Cl.Clc1ccc(/C=N/Nc2cc(N/N=C/c3ccc(Cl)cc3)ncn2)cc1 [NCL 187],MIC (μg/ml) at 24 hours Pseudomonas #008,Pseudomonas aeruginosa,>64 µg/mL
same,MIC (μg/ml) at 24 hours E. faecalis #32,E. faecalis #32,>64 µg/mL
same,MIC (μg/ml) at 24 hours S. aureus ATCC29213,S. aureus ATCC29213,>64 µg/mL
same,MIC (μg/ml) at 24 hours E. coli ATCC25922,Escherichia coli,>64 µg/mL
CC(Nc1cc(NC(C)c2ccccc2)ncn1)c1ccccc1 (stereo not shown) [NCL 183],MIC (μg/ml) at 24 hours Pseudomonas #008,Pseudomonas aeruginosa,>64 µg/mL
same,MIC (μg/ml) at 24 hours E. faecalis #32,E. faecalis #32,>64 µg/mL
same,MIC (μg/ml) at 24 hours S. aureus ATCC29213,S. aureus ATCC29213,>64 µg/mL
same,MIC (μg/ml) at 24 hours E. coli ATCC25922,Escherichia coli,>64 µg/mL
C/C(=N\Nc1cc(N/N=C(\C)c2ccc(Cl)cc2)ncn1)c1ccc(Cl)cc1.Cl [NCL 185],MIC (μg/ml) at 24 hours Pseudomonas #008,Pseudomonas aeruginosa,>64 µg/mL
same,MIC (μg/ml) at 24 hours E. faecalis #32,E. faecalis #32,>64 µg/mL
same,MIC (μg/ml) at 24 hours S. aureus ATCC29213,S. aureus ATCC29213,>64 µg/mL
same,MIC (μg/ml) at 24 hours E. coli ATCC25922,Escherichia coli,>64 µg/mL
CC(Nc1cc(NC(C)c2ccccc2)nc(N)n1)c1ccccc1 (stereo not shown) [NCL 184],MIC (μg/ml) at 24 hours Pseudomonas #008,Pseudomonas aeruginosa,>64 µg/mL
same,MIC (μg/ml) at 24 hours E. faecalis #32,E. faecalis #32,64 µg/mL
same,MIC (μg/ml) at 24 hours S. aureus ATCC29213,S. aureus ATCC29213,>64 µg/mL
same,MIC (μg/ml) at 24 hours E. coli ATCC25922,Escherichia coli,>64 µg/mL
CN(C)[C@@H]1C(O)=C(C(N)=O)C(=O)[C@@]2(O)C(O)=C3C(=O)c4c(O)cccc4[C@@](C)(O)[C@H]3C[C@@H]12 [Tetracycline],isolates resistant (Kirby-Bauer disc diffusion),[1]; CA-MRSA (n = 10),30.00%
same,isolates resistant (Kirby-Bauer disc diffusion),[1]; HA-MRSA (n = 10),30.00%
same,isolates resistant (Kirby-Bauer disc diffusion),[1]; Methicillin-susceptible staphylococci (n = 10),0.00%
same,Total isolates resistant (Kirby-Bauer disc diffusion),[1]; all isolates (n = 30),20.00%
same,FICI,[2]; FIC index of antibiotic with NCL812,0.625 and 0.75 and 0.62
same,Antibiotic MIC Alone,[2]; antibiotic alone,0.25 mg/L and 0.5 mg/L
same,Result (interaction with NCL812),[2]; antibiotic with NCL812,NE (No effect (NE) was defined as 0.5<FICI<4)
same,disk diffusion zone diameter,S. pneumoniae isolates; A66.1,32 mm
same,disk diffusion zone diameter,S. pneumoniae isolates; D39,35 mm
same,disk diffusion zone diameter,S. pneumoniae isolates; EF3030,34 mm
same,disk diffusion zone diameter,S. pneumoniae isolates; L82016,32 mm
same,disk diffusion zone diameter,S. pneumoniae isolates; P9,32 mm
same,disk diffusion zone diameter,S. pneumoniae isolates; P21,38 mm
same,disk diffusion zone diameter,S. pneumoniae isolates; TIGR4,35 mm
same,disk diffusion zone diameter,S. pneumoniae isolates; WCH16,18 mm
same,disk diffusion susceptibility category,S. pneumoniae isolates; WCH16 (Table 19),R
same,disk diffusion zone diameter,S. pneumoniae isolates; WCH43,31 mm
same,disk diffusion zone diameter,S. pneumoniae isolates; WCH46,30 mm
same,disk diffusion zone diameter,S. pneumoniae isolates; WCH57,48 mm
same,disk diffusion zone diameter,S. pneumoniae isolates; WCH77,39 mm
same,disk diffusion zone diameter,S. pneumoniae isolates; WCH86,31 mm
same,disk diffusion zone diameter,S. pneumoniae isolates; WCH89,35 mm
same,disk diffusion zone diameter,S. pneumoniae isolates; WCH92,29 mm
same,disk diffusion zone diameter,S. pneumoniae isolates; WCH137,37 mm
same,disk diffusion zone diameter,S. pneumoniae isolates; WCH158,35 mm
same,disk diffusion zone diameter,S. pneumoniae isolates; WCH184,11 mm
same,disk diffusion susceptibility category,S. pneumoniae isolates; WCH184 (Table 19),R
same,disk diffusion zone diameter,S. pneumoniae isolates; WCH211,36-37 mm
same,disk diffusion zone diameter,S. pneumoniae isolates; WU2,34 mm
Nc1nc(N/N=C/c2ccc(Cl)cc2)cc(N/N=C/c2ccc(Cl)cc2)n1 [NCL 179],MIC (μg/ml) at 24 hours Pseudomonas #008,Pseudomonas aeruginosa,>64 µg/mL
same,MIC (μg/ml) at 24 hours E. faecalis #32,E. faecalis #32,8 µg/mL
same,MIC (μg/ml) at 24 hours S. aureus ATCC29213,S. aureus ATCC29213,4 µg/mL
same,MIC (μg/ml) at 24 hours E. coli ATCC25922,Escherichia coli,>64 µg/mL
C/C(=N\Nc1cc(N/N=C(\C)c2ccc(Cl)cc2)ncn1)c1ccc(Cl)cc1 [NCL 178],MIC (μg/ml) at 24 hours Pseudomonas #008,Pseudomonas aeruginosa,>64 µg/mL
same,MIC (μg/ml) at 24 hours E. faecalis #32,E. faecalis #32,>64 µg/mL
same,MIC (μg/ml) at 24 hours S. aureus ATCC29213,S. aureus ATCC29213,>64 µg/mL
same,MIC (μg/ml) at 24 hours E. coli ATCC25922,Escherichia coli,>64 µg/mL
Cl.OC/C(=N\Nc1cc(N/N=C(\CO)c2ccc(Cl)cc2)ncn1)c1ccc(Cl)cc1 [NCL 189],MIC (μg/ml) at 24 hours Pseudomonas #008,Pseudomonas aeruginosa,>64 µg/mL
same,MIC (μg/ml) at 24 hours E. faecalis #32,E. faecalis #32,>64 µg/mL
same,MIC (μg/ml) at 24 hours S. aureus ATCC29213,S. aureus ATCC29213,>64 µg/mL
same,MIC (μg/ml) at 24 hours E. coli ATCC25922,Escherichia coli,>64 µg/mL

# From patent US10253002B2, “Compounds and methods of treating infections” (Neoculi Pty Ltd., priority 2013, dated 2019)
